Assay results: patent US8450243B2, “Herbicidal quinoline and 1,8-naphthyridine compounds” (Syngenta Limited, priority 2009, dated 2013)

What was measured:
Assay type in all cases: in vivo
[1] = test system: Abuthilon theophrasti (ABUTH); assay: Herbicidal glasshouse test, post-emergence; conditions: POST Application, evaluated after 13 days; for damage to plant (100=total damage to plant; 0=no damage to plant): 250 g/ha; for pest or weed control at 250 g/ha: Abutilon theophrasti, post-emergence, 312 h, read-out: damage to plant (100=total damage to plant; 0=no damage to plant)
Experimental: (§1) Seeds of a variety of test species were sown in standard soil in pots (Alopecurus myosuroides (ALOMY), Setaria faberi (SETFA), Echinochloa crus-galli (ECHCG), Abuthilon theophrasti (ABUTH) and Amaranthus retoflexus (AMARE)). After cultivation for one day (pre-emergence) or after 8 days cultivation (post-emergence) under controlled conditions in a glasshouse (at 24/16° C., day/night; 14 hours light; 65% humidity), the plants were sprayed with an aqueous spray solution derived from the formulation of the technical active ingredient in acetone/water (50:50) solution containing 0.5% Tween 20 (polyoxyethelyene sorbitan monolaurate, CAS RN 9005-64-5). Compounds were applied at 250 g/ha. The test plants were then grown in a glasshouse under controlled conditions in a glasshouse (at 24/16° C., day/night; 14 hours light; 65% humidity) and watered twice daily. After 13 days for pre and post-emergence, the test was evaluated (100=total damage to plant; 0=no damage to plant).

[2] = test system: Setaria faberi (SETFA); assay: Herbicidal glasshouse test, post-emergence; conditions: POST Application, evaluated after 13 days; for damage to plant (100=total damage to plant; 0=no damage to plant): 250 g/ha; for pest or weed control at 250 g/ha: Setaria faberi, post-emergence, 312 h, read-out: damage to plant (100=total damage to plant; 0=no damage to plant)
Experimental: as §1

[3] = test system: Amaranthus retoflexus (AMARE); assay: Herbicidal glasshouse test, post-emergence; conditions: POST Application, evaluated after 13 days; for damage to plant (100=total damage to plant; 0=no damage to plant): 250 g/ha; for pest or weed control at 250 g/ha: Amaranthus retroflexus, post-emergence, 312 h, read-out: damage to plant (100=total damage to plant; 0=no damage to plant)
Experimental: as §1

[4] = test system: Echinochloa crus-galli (ECHCG); assay: Herbicidal glasshouse test, post-emergence; conditions: POST Application, evaluated after 13 days; for damage to plant (100=total damage to plant; 0=no damage to plant): 250 g/ha; for pest or weed control at 250 g/ha: Echinochloa crus-galli, post-emergence, 312 h, read-out: damage to plant (100=total damage to plant; 0=no damage to plant)
Experimental: as §1

[5] = test system: Alopecurus myosuroides (ALOMY); assay: Herbicidal glasshouse test, post-emergence; conditions: POST Application, evaluated after 13 days; for damage to plant (100=total damage to plant; 0=no damage to plant): 250 g/ha; for pest or weed control at 250 g/ha: Alopecurus myosuroides, post-emergence, 312 h, read-out: damage to plant (100=total damage to plant; 0=no damage to plant)
Experimental: as §1

[6] = test system: Abuthilon theophrasti (ABUTH); assay: Herbicidal glasshouse test, pre-emergence; conditions: PRE Application, evaluated after 13 days; for damage to plant (100=total damage to plant; 0=no damage to plant): 250 g/ha; for pest or weed control at 250 g/ha: Abutilon theophrasti, pre-emergence, 312 h, read-out: damage to plant (100=total damage to plant; 0=no damage to plant)
Experimental: as §1

[7] = test system: Setaria faberi (SETFA); assay: Herbicidal glasshouse test, pre-emergence; conditions: PRE Application, evaluated after 13 days; for damage to plant (100=total damage to plant; 0=no damage to plant): 250 g/ha; for pest or weed control at 250 g/ha: Setaria faberi, pre-emergence, 312 h, read-out: damage to plant (100=total damage to plant; 0=no damage to plant)
Experimental: as §1

[8] = test system: Amaranthus retoflexus (AMARE); assay: Herbicidal glasshouse test, pre-emergence; conditions: PRE Application, evaluated after 13 days; for damage to plant (100=total damage to plant; 0=no damage to plant): 250 g/ha; for pest or weed control at 250 g/ha: Amaranthus retroflexus, pre-emergence, 312 h, read-out: damage to plant (100=total damage to plant; 0=no damage to plant)
Experimental: as §1

[9] = test system: Echinochloa crus-galli (ECHCG); assay: Herbicidal glasshouse test, pre-emergence; conditions: PRE Application, evaluated after 13 days; for damage to plant (100=total damage to plant; 0=no damage to plant): 250 g/ha; for pest or weed control at 250 g/ha: Echinochloa crus-galli, pre-emergence, 312 h, read-out: damage to plant (100=total damage to plant; 0=no damage to plant)
Experimental: as §1

[10] = test system: Alopecurus myosuroides (ALOMY); assay: Herbicidal glasshouse test, pre-emergence; conditions: PRE Application, evaluated after 13 days; for damage to plant (100=total damage to plant; 0=no damage to plant): 250 g/ha; for pest or weed control at 250 g/ha: Alopecurus myosuroides, pre-emergence, 312 h, read-out: damage to plant (100=total damage to plant; 0=no damage to plant)
Experimental: as §1

Cc1ccccc1-n1c(=O)c(C(=O)C2C(=O)CCCC2=O)cc2cc(F)cnc21 [Compound 4.22]
damage to plant (100=total damage to plant; 0=no damage to plant) [1]: 80
damage to plant (100=total damage to plant; 0=no damage to plant) [2]: 80
damage to plant (100=total damage to plant; 0=no damage to plant) [3]: 70
damage to plant (100=total damage to plant; 0=no damage to plant) [4]: 70
damage to plant (100=total damage to plant; 0=no damage to plant) [5]: 80
damage to plant (100=total damage to plant; 0=no damage to plant) [6]: 90
damage to plant (100=total damage to plant; 0=no damage to plant) [7]: 100
damage to plant (100=total damage to plant; 0=no damage to plant) [8]: 100
damage to plant (100=total damage to plant; 0=no damage to plant) [9]: 100
damage to plant (100=total damage to plant; 0=no damage to plant) [10]: 90

O=C1CCCC(=O)C1C(=O)c1cc2cc(F)cnc2n(-c2ccccc2C(F)(F)F)c1=O [Compound 4.34]
damage to plant (100=total damage to plant; 0=no damage to plant) [1]: 80
damage to plant (100=total damage to plant; 0=no damage to plant) [2]: 80
damage to plant (100=total damage to plant; 0=no damage to plant) [3]: 80
damage to plant (100=total damage to plant; 0=no damage to plant) [4]: 90
damage to plant (100=total damage to plant; 0=no damage to plant) [5]: 90
damage to plant (100=total damage to plant; 0=no damage to plant) [6]: 100
damage to plant (100=total damage to plant; 0=no damage to plant) [7]: 100
damage to plant (100=total damage to plant; 0=no damage to plant) [8]: 100
damage to plant (100=total damage to plant; 0=no damage to plant) [9]: 100
damage to plant (100=total damage to plant; 0=no damage to plant) [10]: 100

O=C1CCCC(=O)C1C(=O)c1cc2cc(F)cnc2n(-c2ccccc2Cl)c1=O [Compound 4.28]
damage to plant (100=total damage to plant; 0=no damage to plant) [1]: 80
damage to plant (100=total damage to plant; 0=no damage to plant) [2]: 80
damage to plant (100=total damage to plant; 0=no damage to plant) [3]: 80
damage to plant (100=total damage to plant; 0=no damage to plant) [4]: 80
damage to plant (100=total damage to plant; 0=no damage to plant) [5]: 70
damage to plant (100=total damage to plant; 0=no damage to plant) [6]: 100
damage to plant (100=total damage to plant; 0=no damage to plant) [7]: 100
damage to plant (100=total damage to plant; 0=no damage to plant) [8]: 50
damage to plant (100=total damage to plant; 0=no damage to plant) [9]: 100
damage to plant (100=total damage to plant; 0=no damage to plant) [10]: 90

COc1ccc(-n2c(=O)c(C(=O)C3C(=O)CCCC3=O)cc3cc(F)cnc32)cn1 [Compound 4.20]
damage to plant (100=total damage to plant; 0=no damage to plant) [1]: 80
damage to plant (100=total damage to plant; 0=no damage to plant) [2]: 80
damage to plant (100=total damage to plant; 0=no damage to plant) [3]: 60
damage to plant (100=total damage to plant; 0=no damage to plant) [4]: 80
damage to plant (100=total damage to plant; 0=no damage to plant) [5]: 80
damage to plant (100=total damage to plant; 0=no damage to plant) [6]: 100
damage to plant (100=total damage to plant; 0=no damage to plant) [7]: 70
damage to plant (100=total damage to plant; 0=no damage to plant) [8]: 100
damage to plant (100=total damage to plant; 0=no damage to plant) [9]: 100
damage to plant (100=total damage to plant; 0=no damage to plant) [10]: 90

COCn1c(=O)c(C(=O)C2C(=O)CCCC2=O)cc2cc(F)c(C)nc21 [Compound 1.46]
pest or weed control at 250 g/ha [1]: 100%
pest or weed control at 250 g/ha [2]: 70%
pest or weed control at 250 g/ha [3]: 70%
pest or weed control at 250 g/ha [4]: 80%
pest or weed control at 250 g/ha [5]: 70%
pest or weed control at 250 g/ha [6]: 80%
pest or weed control at 250 g/ha [7]: 80%
pest or weed control at 250 g/ha [8]: 100%
pest or weed control at 250 g/ha [9]: 100%
pest or weed control at 250 g/ha [10]: 60%

O=C1CCCC(=O)C1C(=O)c1cc2cc(F)cnc2n(CCOc2ccccc2)c1=O [Compound 4.16]
pest or weed control at 250 g/ha [1]: 80%
pest or weed control at 250 g/ha [2]: 60%
pest or weed control at 250 g/ha [3]: 50%
pest or weed control at 250 g/ha [4]: 80%
pest or weed control at 250 g/ha [5]: 40%
pest or weed control at 250 g/ha [6]: 50%
pest or weed control at 250 g/ha [7]: 20%
pest or weed control at 250 g/ha [8]: 30%
pest or weed control at 250 g/ha [9]: 50%
pest or weed control at 250 g/ha [10]: 20%

Cc1cc(C)c2cc(C(=O)C3C(=O)CCCC3=O)c(=O)n(C)c2n1 [Compound 1.42]
pest or weed control at 250 g/ha [1]: 50%
pest or weed control at 250 g/ha [2]: 60%
pest or weed control at 250 g/ha [3]: 70%
pest or weed control at 250 g/ha [4]: 70%
pest or weed control at 250 g/ha [5]: 0%
pest or weed control at 250 g/ha [6]: 0%
pest or weed control at 250 g/ha [7]: 0%
pest or weed control at 250 g/ha [8]: 0%
pest or weed control at 250 g/ha [9]: 0%
pest or weed control at 250 g/ha [10]: 0%
